# Legend:
# angina patients = assay: Angina clinical trials using ranolazine: blood parameters (summary in background); format: in vivo, human
# From the text: One compound disclosed therein, (±)-N-(2,6-dimethylphenyl)-4-[2-hydroxy-3-(2-methoxyphenoxy)-propyl]-1-piperazineacetamide (known as ranolazine) is undergoing clinical trials for the treatment of angina. […] Ranolazine was also found to reduce triglyceride levels in non-diabetic patients. Ranolazine was also found to lower glucose plasma levels and, over the long term, total cholesterol levels, while increasing HDL cholesterol levels. Thus, ranolazine provides a method of treating diabetes pre-diabetes, or the non-diabetes condition by reducing the levels of potentially toxic metabolites in blood and/or complications associated with diabetes. Ranolazine also can reduce the number of medications necessary for a patient with both cardiovascular problems and diabetes or pre-diabetes.
# [1] = Solubility of ranolazine in aqueous solutions as a function of pH; format: physicochemical
# [2] = test system: symptomatic chronic angina patients; assay: CARISA study: modified Bruce treadmill exercise tests and angina, ranolazine added to background anti-anginal therapy; format: in vivo, human; settings: for Prolongation of exercise duration at trough drug concentrations: Example 10 formulation
# Experimental: (§1) The CARISA (Combination Assessment of Ranolazine in Stable Angina) study randomized 823 symptomatic chronic angina patients on diltiazem, atenolol or amlodipine to ranolazine 750 mg bid, 1000 mg bid or placebo in a parallel, double-blind, 12 week study. Modified Bruce treadmill tests were performed at baseline, and after 2, 6, and 12 weeks of treatment at trough and peak plasma levels. The ranolazine formulation used in this study was that shown in Example 10.
# (§2) Angina frequency and nitroglycerin consumption were reduced by ranolazine. The ranolazine formulation used in the CARISA and MARISA studies was that shown in Example 10. The most frequently reported adverse events (dizziness constipation and nausea) were generally mild and occurred in fewer than 10% of patients. The potential use of ranolazine in diabetics is of interest because approximately one in four angina patients has diabetes.
# diabetic patients [3] = assay: Open-label long-term ranolazine treatment of MARISA/CARISA diabetic patients; format: in vivo, human
# Experimental: Efficacy and tolerability of ranolazine were similar in both diabetic and non-diabetic patients in both MARISA and CARISA. In diabetic patients in CARISA (N=131), ranolazine 750 and 1000 mg bid were associated with a mean absolute reduction in HbA1c of 0.48 percentage points and 0.70 percentage points, respectively, compared to placebo at 12 weeks (each p<0.01). The reductions versus placebo were greater in those patients on insulin (N=31; 0.84 and 1.05 percentage points), on 750 and 1000 mg bid (p<0.02 and p<0.01), respectively. Fasting glucose was not affected by ranolazine in diabetic patients in CARISA, regardless of insulin treatment; one hypoglycemic episode was reported on placebo and one on ranolazine.
# chronic angina patients = assay: Adverse events in CARISA and MARISA; format: in vivo, human; settings: for Patients with at least one adverse event: CARISA
# Experimental: as §1, §2
# diabetic patients [4] = assay: CARISA study: glucose, triglyceride and cholesterol values of diabetic patients; format: in vivo, human; settings: for Glucose, change from baseline / Triglycerides, change from baseline: all diabetic patients, mean ± SEM; for Glucose, change from baseline: placebo change 1.2 ± 7.1; for Triglycerides, change from baseline: placebo change 26.3 ± 21.2
# Experimental: The […] (Combination Assessment of Ranolazine in Stable Angina) study randomized 823 symptomatic chronic angina patients on diltiazem, atenolol or amlodipine to ranolazine 750 mg bid, 1000 mg bid or placebo in a parallel, double-blind, 12 week study. Modified Bruce treadmill tests were performed at baseline, and after 2, 6, and 12 weeks of treatment at trough and peak plasma levels. The ranolazine formulation used in this study was that shown in Example 10.
# [5] = test system: patients with chronic angina; assay: MARISA study: treadmill exercise capacity, ranolazine alone; format: in vivo, human; settings: N=191
# From the text: as §2
# [6] = test system: angina patients with diabetes; assay: CARISA study: hemoglobin A1c in angina patients with diabetes; format: in vivo, human; settings: 12 weeks; for Average absolute reduction in HbA1c compared to placebo: all diabetic patients (N=131); for Absolute reduction in HbA1c compared to placebo: diabetic patients on insulin (N=31)
# Experimental: HbA1c levels were assayed following a modification of the method of Phillipov (Components of total measurement error for hemoglobin A1c determination. Phillipov, G., et al. Clin. Chem. (2001), 47(10):1851). (see FIG. 1) The […] (Combination Assessment of Ranolazine in Stable Angina) study randomized 823 symptomatic chronic angina patients on diltiazem, atenolol or amlodipine to ranolazine 750 mg bid, 1000 mg bid or placebo in a parallel, double-blind, 12 week study. Modified Bruce treadmill tests were performed at baseline, and after 2, 6, and 12 weeks of treatment at trough and peak plasma levels. The ranolazine formulation used in this study was that shown in Example 10.
# [7] = CARISA, diabetic and non-diabetic patients
# [8] = over 3 years of open-label treatment, combined MARISA/CARISA diabetic population
# [9] = first 12 weeks of treatment, diabetic patients in CARISA
smiles,measurement,setting,value
"COc1ccccc1OCC(O)CN1CCN(CC(=O)Nc2c(C)cccc2C)CC1 (racemic) [ranolazine, N-(2,6-dimethylphenyl)-4-[2-hydroxy-3-(2-methoxyphenoxy)propyl]-1-piperazineacetamide]",Glucose plasma levels,angina patients; angina clinical trials,lower
same,HDL cholesterol levels,angina patients; angina clinical trials,increasing
same,Hemoglobulin A1 (HbA1c) levels,angina patients; diabetic angina patients,reduced
same,Triglyceride levels,"angina patients; diabetic angina patients, over the long term",reduced
same,Triglyceride levels,angina patients; non-diabetic patients,reduce
same,Total cholesterol levels,angina patients; over the long term,lower
same,Solubility in aqueous solutions (in words),[1]; aqueous solutions having a pH above about 6.5,relatively insoluble
same,USP Solubility Class,[1]; solution pH 4.81,Freely Soluble
same,USP Solubility Class,[1]; solution pH 4.89,Soluble
same,USP Solubility Class,[1]; solution pH 4.90,Soluble
same,USP Solubility Class,[1]; solution pH 5.04,Soluble
same,USP Solubility Class,[1]; solution pH 5.35,Sparingly Soluble
same,USP Solubility Class,[1]; solution pH 5.82,Slightly soluble
same,USP Solubility Class,[1]; solution pH 6.46,Slightly soluble
same,USP Solubility Class,[1]; solution pH 6.73,Very slightly soluble
same,USP Solubility Class,[1]; solution pH 7.08,Very slightly soluble
same,USP Solubility Class,[1]; solution pH 7.59 (unbuffered water),Very slightly soluble
same,USP Solubility Class,[1]; solution pH 7.79,Very slightly soluble
same,USP Solubility Class,[1]; solution pH 12.66,Very slightly soluble
same,Prolongation of exercise duration at trough drug concentrations,"[2]; 750 mg bid, angina patients with diabetes",29 s
same,Prolongation of exercise duration at trough drug concentrations,"[2]; 750 mg bid, non-diabetic angina patients",22 s
same,Prolongation of exercise duration at trough drug concentrations,"[2]; 1000 mg bid, angina patients with diabetes",34 s
same,Prolongation of exercise duration at trough drug concentrations,"[2]; 1000 mg bid, non-diabetic angina patients",21 s
same,Angina frequency,[2]; [7],decreased
same,Time to angina,[2]; [7],increased
same,Angina frequency,[2]; MARISA and CARISA,reduced
same,Nitroglycerin consumption,[2]; MARISA and CARISA,reduced
same,Treadmill exercise capacity,"[2]; added to atenolol, diltiazem, or amlodipine, CARISA, N=823",increased
same,Exercise duration (ED) at trough and peak (in words),[2]; similarly in diabetic and non-diabetic patients,prolonged
same,Decrease of HbA1c from baseline,"diabetic patients [3]; after 12-24 months of open-label treatment, diabetic patients",1.1 percentage points
same,HDL cholesterol,diabetic patients [3]; [8],continued to increase
same,LDL cholesterol,diabetic patients [3]; [8],decreased from baseline
same,Total cholesterol,diabetic patients [3]; [8],decreased from baseline
same,Patients with the most frequently reported adverse events (dizziness constipation and nausea),"chronic angina patients; CARISA and MARISA, generally mild",< 10%
same,Patients with at least one adverse event,"chronic angina patients; diabetic patients, 750 mg bid (placebo 25%)",25%
same,Patients with at least one adverse event,"chronic angina patients; diabetic patients, 1000 mg bid (placebo 25%)",34%
same,Patients with at least one adverse event,"chronic angina patients; non-diabetic patients, 750 mg bid (placebo 27%)",33%
same,Patients with at least one adverse event,"chronic angina patients; non-diabetic patients, 1000 mg bid (placebo 27%)",32%
same,Hypoglycemic episodes reported,chronic angina patients; diabetic patients in CARISA (one on placebo),one
same,"Glucose, change from baseline","diabetic patients [4]; 750 mg bid, baseline 168 ± 8.0",8.0 ± 8.8 mg/dL
same,"Triglycerides, change from baseline","diabetic patients [4]; 750 mg bid, baseline 192.0 ± 14.5",21.2 ± 13.5 mg/dL
same,"Glucose, change from baseline","diabetic patients [4]; 1000 mg bid, baseline 165.2 ± 7.8",1.7 ± 7.2 mg/dL
same,"Triglycerides, change from baseline","diabetic patients [4]; 1000 mg bid, baseline 196 ± 17.5",-7.3 ± 9.3 mg/dL
same,Fasting glucose,"diabetic patients [4]; diabetic patients in CARISA, regardless of insulin treatment",not affected
same,HDL/LDL ratio,diabetic patients [4]; [9],changed little
same,Mean increase in HDL cholesterol,diabetic patients [4]; [9],up to 5 mg/dL
same,Mean increase in LDL cholesterol,diabetic patients [4]; [9],≤ 11 mg/dL
same,Mean increase in total cholesterol,diabetic patients [4]; [9],up to 16 mg/dL
same,Treadmill exercise capacity,[5],increased
same,Average absolute reduction in HbA1c compared to placebo,"[6]; 750 mg bid, p<0.01",0.48 percentage points
same,Absolute reduction in HbA1c compared to placebo,"[6]; 750 mg bid, p<0.02",0.84 percentage points
same,Absolute reduction in HbA1c compared to placebo,"[6]; 750 mg bid, p<0.02, listed as Ranolazine",0.8 percentage points
same,Average absolute reduction in HbA1c compared to placebo,"[6]; 1000 mg bid, p<0.01",0.70 percentage points
same,Absolute reduction in HbA1c compared to placebo,"[6]; 1000 mg bid, p<0.01",1.05 percentage points
same,Absolute reduction in HbA1c compared to placebo,"[6]; 1000 mg bid, p<0.01, listed as Ranolazine",1.1 percentage points

# Source: patent US8883750B2, “Method of treating diabetes” (Gilead Sciences, Inc., priority 2002, dated 2014)
